In US20110212999A1, “TRIAZOLE DERIVATIVES AND THEIR USE AS NICOTINIC ACETYLCHOLINE RECEPTOR MODULATORS” (NEUROSEARCH A/S, priority 2008, published 2011):

target: T1, human nicotinic acetylcholine receptor subtype a4b2 (Homo sapiens, UniProt P17787+P43681); assay: FLIPR nAChR a4b2 positive allosteric modulator activity (shift of nicotine concentration-response); format: cell-based; conditions: nicotine +/- test compound, HEK-293 cells stably expressing hα4β2
T1 construct: expressed in transfected cells; host or cells: HEK-293
Description: Characterization of hα4β2 positive allosteric modulators using FLIPR
The modulator activity is determined as a fluorescence-based assay using a Fluorometric Imaging Plate Reader (FLIPR) as described below in more detail.
Full concentration-response curves of nicotine +/− test compound are generated and delta pEC50 values are calculated based on EC50 values for nicotine +/− test compound. EC50 values (Effective Concentration 50%) represent the concentration of the nicotine, at which the nicotine-induced response is 50% of the maximal nicotine-induced response.
Preferred compounds of the invention show an activity determined as delta pEC50 values above 1 in the presence of 10 μM of the test compound compared to nicotine alone.

T1 sequence (P43681 29-627 limits assumed): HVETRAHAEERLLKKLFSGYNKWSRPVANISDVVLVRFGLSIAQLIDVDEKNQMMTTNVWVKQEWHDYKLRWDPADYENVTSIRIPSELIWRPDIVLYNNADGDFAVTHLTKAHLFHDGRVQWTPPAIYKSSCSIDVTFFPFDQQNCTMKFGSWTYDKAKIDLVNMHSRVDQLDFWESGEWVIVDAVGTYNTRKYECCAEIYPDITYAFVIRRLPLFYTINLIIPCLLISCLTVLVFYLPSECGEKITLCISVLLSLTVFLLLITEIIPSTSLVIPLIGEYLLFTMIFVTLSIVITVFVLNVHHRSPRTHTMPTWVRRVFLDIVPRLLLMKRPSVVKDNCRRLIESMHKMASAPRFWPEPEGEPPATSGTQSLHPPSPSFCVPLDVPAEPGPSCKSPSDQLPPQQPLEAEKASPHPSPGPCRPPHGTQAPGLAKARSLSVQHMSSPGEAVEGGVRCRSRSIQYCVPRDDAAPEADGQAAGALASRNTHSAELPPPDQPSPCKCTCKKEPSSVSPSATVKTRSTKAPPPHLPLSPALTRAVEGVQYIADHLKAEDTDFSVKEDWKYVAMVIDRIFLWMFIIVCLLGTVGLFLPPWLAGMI
T1 sequence (P17787 26-502): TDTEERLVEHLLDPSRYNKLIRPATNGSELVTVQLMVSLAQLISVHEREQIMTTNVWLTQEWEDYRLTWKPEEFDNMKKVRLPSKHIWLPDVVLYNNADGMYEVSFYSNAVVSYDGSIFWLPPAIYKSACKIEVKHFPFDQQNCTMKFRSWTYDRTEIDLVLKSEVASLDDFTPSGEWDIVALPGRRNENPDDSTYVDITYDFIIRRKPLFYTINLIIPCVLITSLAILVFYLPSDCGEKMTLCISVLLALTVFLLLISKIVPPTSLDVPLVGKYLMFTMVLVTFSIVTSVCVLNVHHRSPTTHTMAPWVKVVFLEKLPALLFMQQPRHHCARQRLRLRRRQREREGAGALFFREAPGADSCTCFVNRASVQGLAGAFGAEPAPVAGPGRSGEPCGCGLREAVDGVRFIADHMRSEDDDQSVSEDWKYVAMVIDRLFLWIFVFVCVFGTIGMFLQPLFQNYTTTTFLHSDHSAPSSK

SMILES | Delta pEC50
N#Cc1cccc(-n2cc(-c3cccnc3)nn2)c1 [Compound 1, 3-(4-Pyridin-3-yl-[1,2,3]triazol-1-yl)-benzonitrile] | 1.6
N#Cc1ccc(-n2cc(-c3cccnc3)nn2)o1 [Compound 2, 5-(4-pyridin-3-yl-[1,2,3]triazol-1-yl)-furan-2-carbonitrile] | 1.2

tested on: not given; assay: not given; conditions: not given

SMILES | melting point [°C]
Fc1cccc(Cl)c1-c1cn(-c2cccnc2)nn1 [Compound 1E, 3-[4-(2-Chloro-6-fluoro-phenyl)-[1,2,3]triazol-1-yl]-pyridine] | 94 to 95.2
[C-]#[N+]c1cccc(-c2cn(-c3ccc(Cl)nc3)nn2)c1 [Compound 1G, 2-Chloro-5-[4-(3-isocyano-phenyl)-[1,2,3]triazol-1-yl]-pyridine] | 202.2 to 203.6
N#Cc1cccc(-n2cc(-c3ccc(Cl)nc3)nn2)c1 [Compound 1H, 3-[4-(6-Chloro-pyridin-3-yl)-[1,2,3]triazol-1-yl]-benzonitrile] | 219.3 to 220
Fc1cccc(Cl)c1-n1cc(-c2cccnc2)nn1 [Compound 1I, 3-[1-(2-Chloro-6-fluoro-phenyl)-1H-[1,2,3]triazol-4-yl]-pyridine] | 94.5 to 97.1
N#Cc1cccc(-n2cc(-c3cccnc3Cl)nn2)c1 [Compound 1J, 3-[4-(2-Chloro-pyridin-3-yl)-[1,2,3]triazol-1-yl]-benzonitrile] | 181 to 182.6
[C-]#[N+]c1cccc(-c2cn(-c3cccnc3Cl)nn2)c1 [Compound 1K, 2-Chloro-3-[4-(3-isocyano-phenyl)-[1,2,3]triazol-1-yl]-pyridine] | 184 to 185
COc1ccc(-c2cn(-c3cccnc3)nn2)cn1 [Compound 1N, 2-Methoxy-5-(1-pyridin-3-yl-1H-[1,2,3]triazol-4-yl)-pyridine] | 205.6 to 206.9

The next lines start with the values.

melting point [°C] | SMILES
217 to 219 | c1cncc(-c2cn(-c3cccnc3)nn2)c1 [Compound 1B, 3-(1-Pyridin-3-yl-1H-[1,2,3]triazol-4-yl)-pyridine]
190.2 to 191.6 | Fc1cncc(-c2cn(-c3cccnc3)nn2)c1 [Compound 1L, 3-Fluoro-5-(1-pyridin-3-yl-1H-[1,2,3]triazol-4-yl)-pyridine]
187 to 188.7 | Fc1ccc(-c2cn(-c3cccnc3)nn2)cn1 [Compound 1M, 2-Fluoro-5-(1-pyridin-3-yl-1H-[1,2,3]triazol-4-yl)-pyridine]
190.6 to 191.7 | Fc1cncc(-n2cc(-c3cccnc3)nn2)c1 [Compound 1O, 3-Fluoro-5-(4-pyridin-3-yl-[1,2,3]triazol-1-yl)-pyridine]
221.3 to 222.6 | Fc1ccc(-n2cc(-c3cccnc3)nn2)cn1 [Compound 1P, 2-Fluoro-5-(4-pyridin-3-yl-[1,2,3]triazol-1-yl)-pyridine]
226.2 to 227.8 | Brc1cncc(-n2cc(-c3cccnc3)nn2)c1 [Compound 1Q, 3-Bromo-5-(4-pyridin-3-yl-[1,2,3]triazol-1-yl)-pyridine]
156.3 to 158.2 | Fc1cccc(-n2cc(-c3cccnc3)nn2)c1 [Compound 1R, 3-[1-(3-Fluoro-phenyl)-1H-[1,2,3]triazol-4-yl]-pyridine]
179.9 to 190.9 | Fc1ccc(-n2cc(-c3cccnc3)nn2)cc1 [Compound 1S, 3-[1-(4-Fluoro-phenyl)-1H-[1,2,3]triazol-4-yl]-pyridine]
